The values that follow come from patent publication US20240116961A1, “TRIPHENYPHOSPHINE MODIFIED SERTRALINE DERIVATIVE AND METHODS THEREOF” (XIAMEN UNIVERSITY, priority 2022, published 2024).

One series concerns tumor cells. As to the kind of experiment: Mitophagy by transmission electron microscopy. Format: cell-based. The settings on record: concentration 0.3 μM, work time 3 hours; FIG. 3. The procedure:
• (1) Apparatus: Transmission electron microscope Hitachi HT-7800 • (2) Reagent: glutaraldehyde • (3) Experimental method: cells are inoculated in a 6 cm diameter Petri dish and incubated with the compounds for 3 hours. The culture solution is poured out; a 2 mL glutaraldehyde working solution (2.5% glutaraldehyde and phosphate buffer (PB) system) restored to room temperature is added and put into a refrigerator at 4° C. after fixation for 15 minutes at room temperature; the fixation solution is diluted 2-3 times with PB after fixation for 2-3 hours, the PB used for washing is poured off, PB containing 5% Bovine albumin (BSA) is added with an amount of 1 mL, and the adherent fixed cells are scraped off using a cell scraper, collected into 1.5 mL centrifuge tubes, and centrifuged for 4-5 minutes at 2,500 revolutions per minute (rpm) at 4° C. to prepare samples. The images are analyzed by a transmission electron microscope.

Series [1] can be described thus: Immunohistochemistry of heart, liver, spleen, lung and kidney in tumor-bearing mice. It is filed as in vivo, BALB/c (nu/nu) nude mice. The settings on record: 1 mg/kg intraperitoneal injection once a day for 15 days; FIG. 6. The procedure:
BALB/c (nu/nu) nude mice (with weights of 18-20 g and raised in an SPF-level animal room) are selected to construct a mouse transplantation tumor model in vitro, the mice are grouped and inoculated with human non-small cell lung cancer cells (A549), and tumor volumes in the mice grow to 100-300 mm^3. The drug is administered by intraperitoneal injection, and each mouse in an administration group is administered once a day and 1 mg/kg once according to body weight. In a control group, each mouse is administrated with a same volume of PBS buffer, the volume of each mouse is measured simultaneously, and the drug is continuously administered for 15 days. After the drug administration and treatment process is complete, the mice are killed by cervical dislocation, and the mouse tumors are stripped, photographed, and weighed.

Regarding `CN(C(=O)CC[P+](c1ccccc1)(c1ccccc1)c1ccccc1)[C@H]1CC[C@@H](c2ccc(Cl)c(Cl)c2)c2ccccc21` [Mito-2-Ser, (3-(((1S,4S)-4-(3,4-dichlorophenyl)-1,2,3,4-tetrahydronaphthalen-1-yl)(methyl)amino)-3-propanoyl)triphenylphosphine], the “autophagosome formation / mitophagy” value with tumor cells is “induce autophagosome formation to phagocytize mitochondria”. Turning to `CN(C(=O)CCCCCCCCCC[P+](c1ccccc1)(c1ccccc1)c1ccccc1)[C@H]1CC[C@@H](c2ccc(Cl)c(Cl)c2)c2ccccc21` [Mito-10-Ser, (11-(((1S,4S)-4-(3,4-dichlorophenyl)-1,2,3,4-tetrahydronaphthalen-1-yl)(methyl)amino)-11-oxoundecyl)triphenylphosphine], the “toxic side effects (heart, liver, spleen, lung, kidney)” value in series [1] was “did not have significant toxic side effects”. `CN(C(=O)CCCCCCCCCCCC[P+](c1ccccc1)(c1ccccc1)c1ccccc1)[C@H]1CC[C@@H](c2ccc(Cl)c(Cl)c2)c2ccccc21` [Mito-12-Ser, (13-(((1S,4S)-4-(3,4-dichlorophenyl)-1,2,3,4-tetrahydronaphthalen-1-yl)(methyl)amino)-13-oxytridecyl)triphenylphosphine]: the “autophagosome formation / mitophagy” value in the series on tumor cells was “induce autophagosome formation to phagocytize mitochondria”.
